Experimental data: paper PMC3098721 (Molecular microbiology, 2010)

Target: PqsH (MBP-PqsH) (Pseudomonas aeruginosa, UniProt Q02N79)
Assay: PQS fluorescence after ethyl acetate extraction, Michaelis-Menten fit
Format: biochemical
Details: NADH and O2 constant at saturating levels; pH 8.0

PqsH (MBP-PqsH), sequence (Q02N79 2-382): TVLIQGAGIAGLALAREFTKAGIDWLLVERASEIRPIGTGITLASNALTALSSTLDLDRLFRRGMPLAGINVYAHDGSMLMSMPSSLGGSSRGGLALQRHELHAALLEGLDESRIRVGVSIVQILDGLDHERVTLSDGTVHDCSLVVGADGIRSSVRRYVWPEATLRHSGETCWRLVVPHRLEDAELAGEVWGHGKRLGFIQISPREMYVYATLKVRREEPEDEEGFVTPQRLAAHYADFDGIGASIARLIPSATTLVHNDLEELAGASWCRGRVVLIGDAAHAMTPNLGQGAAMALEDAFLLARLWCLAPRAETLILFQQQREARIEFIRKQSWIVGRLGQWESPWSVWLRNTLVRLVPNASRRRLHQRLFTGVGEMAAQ

With `CCCc1cc(=O)c2ccccc2[nH]1` [C3-HHQ] the Km was “almost entirely due to elevated Km values”.
